From PMC9095466 (Nature, 2022)
Where “and” joins values, the source holds several entries; their conditions need not be identical. Identical values can stand only once. Like-named read-outs stand apart in the source and are kept apart here. *1 amine or outer side, *2 acyl side, *3 side chain or, on linkers, in order; H or OH if unused. Where a SMILES comes first, the peptide text is derived from it. Bridges are numbered along the chain shown (N, C = ends). [ ]: non-standard residue; d: D form. The star is where a group is joined. X1 = CC[C@H](C)[C@@H](N[*:1])[C@@H](O)CC(=O)O[C@H](C(=O)[C@H](C)C(=O)[*:2])C(C)C; NMeY = CN[C@@H](Cc1ccc(O)cc1)C(=O)O; dNMeL = CN[C@H](CC(C)C)C(=O)O; Pyruvoyl = CC(=O)C(=O)*

Key:
human TMPRSS2 = human TMPRSS2 (Homo sapiens, UniProt O15393); assay: cell-based; settings: for TMPRSS2 activity (%): Figure 1B, single experiments N1-N3
Chain of human TMPRSS2 (O15393 whole entry): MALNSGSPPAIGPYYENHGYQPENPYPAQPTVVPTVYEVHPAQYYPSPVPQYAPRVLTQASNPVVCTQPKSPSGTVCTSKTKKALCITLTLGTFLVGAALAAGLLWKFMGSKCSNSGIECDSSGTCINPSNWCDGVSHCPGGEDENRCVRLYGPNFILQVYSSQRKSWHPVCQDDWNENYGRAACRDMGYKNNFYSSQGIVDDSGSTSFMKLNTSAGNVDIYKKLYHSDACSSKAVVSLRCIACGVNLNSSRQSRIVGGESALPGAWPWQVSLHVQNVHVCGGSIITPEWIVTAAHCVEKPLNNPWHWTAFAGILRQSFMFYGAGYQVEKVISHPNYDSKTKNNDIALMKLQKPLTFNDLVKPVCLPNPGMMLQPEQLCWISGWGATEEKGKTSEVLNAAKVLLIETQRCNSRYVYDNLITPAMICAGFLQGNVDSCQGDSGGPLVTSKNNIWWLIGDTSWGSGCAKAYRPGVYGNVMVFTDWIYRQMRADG

[1] = system: SARS-CoV-2 lineage B strain (VIDO); assay: microbe, parasite or virus in culture; format: cell-based; settings: for Nucleocapsid / dsRNA: Figure 2a, two replicates; for Nucleocapsid: DMSO control about 91-94; for dsRNA: DMSO control about 93-95; for inhibition at 0.1 µM: read-out: inhibition of SARS-CoV-2 infection
Vero E6 cells = assay: Cytotoxicity assay (Cell Titer-Glo 2.0) in Vero E6 cells; format: cell-based; settings: 24 h, single experiments N1-N4
Description: (§1) Calu-3 and Vero E6 cells (2500 or 10,000 cells for samples, 80–20,000 cells for standard curve) were seeded in 96-well plates. Following a 24-h incubation at 37 °C, 5% CO2, cells were washed with D-PBS and compounds added (10 µM) for an additional 24-h incubation. Cellular viability was assessed using Cell Titer-Glo 2.0 Cell Viability Assay (Promega) according to the manufacturer’s instructions. The number of viable cells was extrapolated using the standard curve. Cellular viability in Vero E6 cells was expressed relative (%) to vehicle-treated cells. Data are from four independent experiments (mean ± s.d.).

[2] = as above; format: cell-based; settings: African green monkey, % Viability of Vero E6 cells
Description: as §1

SARS-CoV-2 (VIDO) [3] = format: cell-based; set-up: plaque assay titre, Figure 2c: unit not given beside the values; settings: for reduction of viral titre (plaque assay): supernatant of infected Calu-3 cells, vs DMSO-treated infected control; for plaque assay titre, Figure 2c: replicate columns
SARS-CoV-2 (VIDO) [4] = assay: microbe, parasite or virus in culture; format: cell-based; settings: Severe acute respiratory syndrome coronavirus 2; colonoids pretreated 3 h with 100 nM, infected 3 days, vs DMSO-treated; read-out: inhibition of SARS-CoV-2 infection in colonoids
[5] = system: SARS-CoV-2 (USA-WA1/2020, lineage A); set-up: species or system K18-hACE2 mice; settings: mouse, in vivo
[6] = system: SARS-CoV-2 (USA-WA1/2020, lineage A); assay: K18-hACE2 mouse model of SARS-CoV-2, IHC of nucleocapsid with digital image analysis; format: in vivo, K18-hACE2 mice; settings: individual mice, 8-day regimen, tissue at death or end-point
Description: To detect viral antigen, sections were labelled with anti-SARS-CoV-2 nucleocapsid protein rabbit IgG monoclonal antibody (GeneTex; GTX635679) at a 1:5,000 dilution and processed using a Leica Bond Max automated IHC stainer. Leica Bond Polymer Refine Detection (Leica; DS9800) with DAB was used as the chromogen. Image acquisition was performed using a Roche Ventana DP200 slide scanner. Digital image analysis was performed using QuPath software[65],[66] v.0.2.3. Tissues were annotated to include all available lung tissue or all brain tissue excluding cerebellum, as cerebellar tissue was not available for all mice. Following annotation, automated detection was performed using automated SLIC superpixel segmentation with a DAB mean detection threshold of 0.18892.

[7] = system: SARS-CoV-2 (USA-WA1/2020, lineage A); format: in vivo, K18-hACE2 mice; settings: Figure S8 C, tissue plaque assay, individual animals
[8] = system: SARS-CoV-2 (USA-WA1/2020, lineage A); assay: K18-hACE2 mouse model of SARS-CoV-2, H&E histopathology of lung and brain; settings: 8-day regimen
Description: For histological examination, mouse lungs and brains were collected directly after euthanasia and placed in 10% formalin for more than 72 h, after which tissues were embedded in paraffin. Tissue sections (4 μm) were analysed after staining with H&E and scored blinded by an anatomic pathologist. For lung, scores were applied based on the percentage of each tissue type (alveolus, vessels and so on) affected using the following criteria: (0) normal; (1) less than 10% affected; (2) 10–25% affected; (3) 26–50% affected; and (4) more than 50% affected[64]. Assessment of lung pathology in K18-hACE2 mice infected with the SARS-CoV-2 B.1.617.2 (Delta) VOC after single-dose treatment was performed on IHC sections counterstained with haematoxylin. For brains, histological scoring was assessed for perivascular inflammation using the most severely affected vessel and the following criteria: (0) no perivascular inflammation; (1) incomplete cuff one cell layer thick; (2) complete cuff one cell layer thick; (3) complete cuff two to three cells thick; and (4) complete cuff four or more cells thick. Necrotic cells in the neuroparenchyma were assessed per 0.237 mm^2 field using the most severely affected area and the following criteria: (0) no necrotic cells; (1) rare individual necrotic cells; (2) fewer than 10 necrotic cells; (3) 11 to 25 necrotic cells; (4) 26 to 50 necrotic cells; and (5) greater than 50 cells.

SARS-CoV-2 = system: SARS-CoV-2; set-up: method as in PMID 33495306; settings: pneumocyte-like cells; read-out: EC50 against SARS-CoV-2 infection; cited from earlier work
[9] = Severe acute respiratory syndrome coronavirus 2, Calu-3
[10] = individual mice, tissue at death or end-point

For CC(NC(=O)C(CCC(N)=O)NC(=O)C(N)CCCNC(=N)N)C(=O)NC(CCCNC(=N)N)C(=O)c1nc2ccccc2s1 (stereo not shown) [Compound N-0100], the “inhibition of TMPRSS2 activity (reduction of substrate proteolysis)” value (human TMPRSS2; 10 nM compound, 24 h, vs untreated/vehicle TMPRSS2-expressing Vero E6 cells) was “did not inhibit”, the “TMPRSS2 activity (%)” value (human TMPRSS2) was 113.572% and 108.611% and 101.926% and the Nucleocapsid [1] was 59.9825 and 100. For the same compound, the dsRNA [1] was 53.1735 and 98.3497, the inhibition at 0.1 µM [1, 9] was less than 25% and the “% Viability of Vero E6 cells” value (Vero E6 cells; 10 μM compound, relative to vehicle (DMSO 0.01%), 10 µM) was 122.116% and 96.727% and 87.5998% and 134.594%.

For N=C(N)NCCCCC(=O)NC(CCC(N)=O)C(=O)NC(CC1CCCCC1)C(=O)NC(CCCNC(=N)N)C(=O)c1nc2ccccc2s1 (stereo not shown) [Compound N-0678], the “TMPRSS2 activity (%)” value (human TMPRSS2) was 91.6478% and 104.935% and 97.8749%, the inhibition at 0.01 µM (human TMPRSS2; Vero C1008, 10 nM compound, 24 h, vs untreated/vehicle TMPRSS2-expressing Vero E6 cells, read-out: inhibition of TMPRSS2 activity (reduction of substrate proteolysis)) was 5% and the Nucleocapsid [1] was 70.7269 and 93.9071. For the same compound, the dsRNA [1] was 64.9837 and 89.8579, the inhibition at 0.1 µM [1, 9] was less than 23% and the viability at 24 h, 10 µM [2] was 113%.

In the case of CS(=O)(=O)NC(CCC(N)=O)C(=O)NC(Cc1ccccc1)C(=O)NC(CCCNC(=N)N)C(O)c1nc2ccccc2s1 (stereo not shown) [N-0385(OH), Ms-QFR-Kbt(OH)], the “reduction in TMPRSS2 activity” value (human TMPRSS2; cells treated with up to 10 μM) is reported as “no significant reduction”, the “inhibition of SARS-CoV-2 infection in dose-response” value ([1]; Calu-3 cells, concentrations up to 1 μM) is reported as “substantial inhibition was not observed” and the Nucleocapsid [1] is reported as 67.4057 and 91.7182. The dsRNA [1] was 60.8663 and 93.4144, the EC50 ([1]; Severe acute respiratory syndrome coronavirus 2, Calu-3, read-out: SARS-CoV-2 VIDO Nucleocapsid EC50 ± SE) was greater than 1000 nM and the inhibition at 0.1 µM [1, 9] was less than 23%. For the same compound, the “Figure 2b dose-response, Mean” value ([1]; log [C] (nM) 0.20412) was 76.2535, the “Figure 2b dose-response, Mean” value ([1]; log [C] (nM) 0.90309) was 92.6293 and the “Figure 2b dose-response, Mean” value ([1]; log [C] (nM) 1.60206) was 68.5403. For the same compound, the “Figure 2b dose-response, Mean” value ([1]; log [C] (nM) 2.30103) was 90.4217, the “Figure 2b dose-response, Mean” value ([1]; log [C] (nM) 3) was 72.2184 and the “Figure 2b dose-response, Mean” value ([1]; log [C] (nM) -0.49485) was 87.0011. For the same compound, the “Figure 2b dose-response, Mean” value ([1]; log [C] (nM) -1.19382) was 84.82, the “reduction of viral titre (plaque assay)” value (SARS-CoV-2 (VIDO) [3]; 40 nM) was “did not induce reduction” and the “plaque assay titre, Figure 2c” value (SARS-CoV-2 (VIDO) [3]; 40 nM) was 240000 and 1067000 and 627000 and 715000 and 1050000 and 440000 and 310000 (2×) and 190000 and 70000 and 400000 and 350000 and 264000 and 242000. For the same compound, the “reduction of viral titre (plaque assay)” value (SARS-CoV-2 (VIDO) [3]; 200 nM) was “did not induce reduction”, the “plaque assay titre, Figure 2c” value (SARS-CoV-2 (VIDO) [3]; 200 nM) was 200000 and 150000 (2×) and 30000 and 500000 (4×) and 780000 and 594000 and 286000 and 190000 and 950000 and the inhibition at 0.1 µM (SARS-CoV-2 (VIDO) [4]) was less than 20%. For the same compound, the “average weight loss at 6 dpi” value [5] was 12%, the “survival to the end-point (14 dpi)” value [5] was 10% and the “weight loss at the study end-point” value [5] was 15%. For the same compound, the “Brain No. Positive (IHC detections)” value [6] was 205622 and 308647 and 423604 and 84 and 143563 and 207074 and 97743 and 210 and 4043 and 310256, the “Brain No. Positive per mm^2” value [6] was 4555.9 per mm^2 and 7896.3 per mm^2 and 7494 per mm^2 and 2.578 per mm^2 and 3909.6 per mm^2 and 5209.1 per mm^2 and 2144.6 per mm^2 and 10.67 per mm^2 and 137.97 per mm^2 and 6010.9 per mm^2 and the “Brain Positive %” value [6] was 45.15% and 78.61% and 74.5% and 0.0256% and 38.77% and 51.89% and 21.4% and 0.1052% and 1.361% and 59.5%. For the same compound, the “Lung No. Positive (IHC detections)” value [6] was 39230 and 61582 and 572 and 191 and 315 and 37366 and 98 and 384 and 178, the “Lung No. Positive per mm^2” value [6] was 2703.8 per mm^2 and 1622.2 per mm^2 and 26.11 per mm^2 and 8.074 per mm^2 and 15.79 per mm^2 and 10.94 per mm^2 and 1638.9 per mm^2 and 3.505 per mm^2 and 17.97 per mm^2 and 6.38 per mm^2 and the “Lung Positive %” value [6] was 26.59% and 15.97% and 0.2589% and 0.0798% and 0.1558% and 0.1086% and 16.31% and 0.0348% and 0.1784% and 0.063%. The PFU/g ([7]; Females) was 15000000 PFU/g and 1441176 PFU/g and 8676471 PFU/g and 0 PFU/g and 2014706 PFU/g, the PFU/mL ([7]; Females) was 3000000 PFU/mL and 288235 PFU/mL and 1735294 PFU/mL and 0 PFU/mL and 402941 PFU/mL and the PFU/g ([7]; Males) was 0 PFU/g and 9852941 PFU/g and 720588 PFU/g. For the same compound, the PFU/mL ([7]; Males) was 0 PFU/mL and 1970588 PFU/mL and 144118 PFU/mL, the “Brain lesions (H&E)” value ([8]; N-0385: surviving mice, day 14) was “reduced” and the “Perivascular infiltrates in CNS score” value ([8]; individual mice, most severely affected vessel) was 0 and 2 and 1. The Alveolar cells score [8, 10] was 0 and 1 ((1) <10% affected) and 2 ((2) 10–25% affected), the Alveolar edema score [8, 10] was 0 and 1 ((1) <10% affected) and 2 ((2) 10–25% affected) and the Alveolar fibrin score [8, 10] was 0 and 1 ((1) <10% affected) and 2 ((2) 10–25% affected). For the same compound, the Fibrosis score [8, 10] was 0, the “Interstitial infiltrates in lung score” value [8, 10] was 0 and 1 ((1) <10% affected) and 3 ((3) 26–50% affected) and the Lymphoid hyperplasia score [8, 10] was 0. The “Perivascular infiltrate in lung score” value [8, 10] was 1 ((1) <10% affected) and 3 ((3) 26–50% affected) and 0 and the “Type II pneumocyte hyperplasia score” value [8, 10] was 0 and 1 ((1) <10% affected) and 3 ((3) 26–50% affected).

In the case of CC[C@H](C)[C@H]1NC(=O)[C@@H](NC(=O)[C@@H](CC(C)C)N(C)C(=O)[C@@H]2CCCN2C(=O)C(C)=O)[C@@H](C)OC(=O)[C@H](Cc2ccc(OC)cc2)N(C)C(=O)[C@@H]2CCCN2C(=O)[C@H](CC(C)C)NC(=O)[C@@H](C)C(=O)[C@H](C(C)C)OC(=O)C[C@@H]1O [Plitidepsin] (Pyruvoyl-P[dNMeL]T[X1]LP[NMeY](Me); ester 3-C), the EC50 (SARS-CoV-2) is given as 1.62 nM.

In the case of Triton X-100 [reference compound], the “% Viability of Vero E6 cells” value (Vero E6 cells; Triton X-100 0.01% toxicity control) is reported as 0.08115% and 6.372% and 5.985% and 2.918%.
